As usually defined, the Kd is the free concentration of one partner at which half of the binding sites on the other are occupied at equilibrium, for simple one-to-one binding.

The target in test [1] is T1, PIRT (Phosphoinositide-interacting regulator of TRP) (Homo sapiens, UniProt P0C851). Kind of test: microscale thermophoresis. Format: binding. (In general: MST reads how a fluorescent partner responds to local heating, with and without ligand.)
Test [2] concerns the target T1, PIRT (Phosphoinositide-interacting regulator of TRP). Kind of test: microscale thermophoresis; […]-PIRT HSQC NMR chemical shift perturbation. Format: binding.
The target of another test is Calmodulin (holo) (UniProt P0DP23). As to the kind of experiment: tryptophan fluorescence. Particulars: cited from earlier work.
The target of test [3] is T2, Human PIRT (phosphoinositide-interacting regulator of TRP), fluorescently labeled for MST (human, UniProt P0C851 1-137, fluorescently labeled (dye and site not stated; by the protocol of ref. 24)).
T2 construct: Measured in 0.1% DPC micelles; The His tag is named only for the pull-down; also called MST labeled PIRT; source: purified
Kind of test: MST; 200 nM fluorescently labeled PIRT, peptide hormone titrated; 0.1% DPC (w/v), 50 mM HEPES, pH 7.0; room temperature; triplicate. Particulars: both partners purified.

Bridge positions count the residues as written; N and C are the ends. Ends that are not written are not given here.

T1 sequence (P0C851 whole entry): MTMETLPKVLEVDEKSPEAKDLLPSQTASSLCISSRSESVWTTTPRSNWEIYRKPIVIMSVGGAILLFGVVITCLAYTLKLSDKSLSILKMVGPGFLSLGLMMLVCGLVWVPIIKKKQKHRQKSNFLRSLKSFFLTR
T2 sequence (P0C851 whole entry): as above

With `CC(C)CCC[C@@H](C)[C@H]1CC[C@H]2[C@@H]3CC=C4C[C@@H](OC(=O)CCC(=O)O)CC[C@]4(C)[C@H]3CC[C@]12C` [cholesteryl-hemisuccinate], in test [1] (read-out: Kd), the Kd was 103 µM. Molecule `C=C1CC[C@H](O)C/C1=C/C=C1\CCC[C@]2(C)[C@@H]([C@H](C)CCCC(C)C)CC[C@@H]12` [Cholecalciferol] registered a Kd in test [1] of 2100 µM. `C[C@]12CC[C@@H]3c4ccc(O)cc4CC[C@H]3[C@@H]1CC[C@@H]2O` [β-Estradiol]: the Kd in test [2] came to 800 µM.

Consider “TRPV1 distal C-terminus (from UniProt O35433)”, for which the Kd in the test with Calmodulin (holo) was 0.054 µM.

As for `C[C@]12CCC(=O)C=C1CC[C@@H]1[C@@H]2[C@@H](O)C[C@@]2(C)[C@H]1CC[C@]2(O)C(=O)CO` [Cortisol], the Kd in test [1] (read-out: Kd) worked out at 790 µM.

B1: Oxytocin (peptide, UniProt P01178 20-28, looked up)
peptide: CYIQNCPLG-NH2
modifications: disulfide 1-6
notes: oxytocin, peptide hormone, cyclic nonapeptide cut from the oxytocin-neurophysin 1 precursor
B1 registered a Kd in test [3] of 7 µM.
